Reference: patent publication US20070149525A1, “Methods of treating amyloidosis using aryl-cyclopropyl derivative aspartyl protease inhibitors” (priority 2005, published 2007)
Read-outs that look alike come from different tables or passages of the source.

Assay: In vitro permeability across MDCK cell monolayer
Assay type: in vitro ADME, Canine
Settings: dog, test compound 5 μM, 2 h at 37° C., apical to basolateral, read-out: Permeability Forward A > B
Experimental: Compounds were evaluated for permeability across a monolayer of Madin-Darby Canine Kidney (MDCK) cells in a transwell device following culturing for 4 days. […] A 0.5 mL of cell suspension (400,000 cells/mL) was placed on membrane and a 1.5 mL media in the bottom wells on day 1. On day 2 and day 3, cells were fed with new media. […] Media was removed from upper chambers and filled with mHBSS with or without CspA, and incubated 30 min at 37° C. with light shaking. Donor chambers were emptied, and filled with test compound at 5 μM in mHBSS. […] Plates were incubated for 2 h at 37° C. with shaking. After 2 h, both the donor and receiver wells were sampled. The bottom chambers were read in a fluorometer to assess LY leakage, and then the media from all wells were assayed by LC/MS/MS to determine compound levels.

Structure (SMILES)	Papp A→B at 2 h, 5 μM [×10⁻⁶ cm/s]	Papp A→B at 2 h, 5 μM (MDCK) [×10⁻⁶ cm/s]
CC(C)(C)Cc1cc(C2(NCC(O)C(Cc3cc(F)cc(F)c3)NC(=O)CF)CC2)on1 (stereo not drawn) [Example 23.10, N-(4-(1-(3-neopentylisoxazol-5-yl)cyclopropylamino)-1-(3,5-difluorophenyl)-3-hydroxybutan-2-yl)-2-fluoroacetamide]	8.26	–
Cc1cc(CC(=O)NC(Cc2cc(F)cc(F)c2)C(O)CNC2(c3cccc(-n4cccn4)c3)CC2)no1 (stereo not drawn) [Example 23.49, N-(4-(1-(3-(1H-pyrazol-1-yl)phenyl)cyclopropylamino)-1-(3,5-difluorophenyl)-3-hydroxybutan-2-yl)-2-(5-methylisoxazol-3-yl)acetamide]	–	10.4
CC(=O)NC(Cc1cc(F)cc(F)c1)C(O)CNC1(c2cncc(CC(C)(C)C)c2)CC1 (stereo not drawn) [Example 23.16, N-(1-(3,5-difluorophenyl)-3-hydroxy-4-(1-(5-neopentylpyridin-3-yl)cyclopropylamino)butan-2-yl)acetamide]	–	13.5
CC(=O)NC(Cc1cc(F)cc(F)c1)C(O)CNC1(c2cccc(C3CC=CCO3)c2)CC1 (stereo not drawn) [Example 23.31, N-(1-(3,5-difluorophenyl)-4-(1-(3-(3,6-dihydro-2H-pyran-2-yl)phenyl)cyclopropylamino)-3-hydroxybutan-2-yl)acetamide]	–	10.7
COCCOCC(=O)NC(Cc1cc(F)cc(F)c1)C(O)CNC1(c2cccc(-n3cccn3)c2)CC1 (stereo not drawn) [Example 23.44, N-(4-(1-(3-(1H-pyrazol-1-yl)phenyl)cyclopropylamino)-1-(3,5-difluorophenyl)-3-hydroxybutan-2-yl)-2-(2-methoxyethoxy)acetamide]	–	13.3
CC(=O)NC(Cc1cc(F)cc(F)c1)C(O)CNC1(n2cccn2)CC1Cc1ccccc1 (single isomer, unassigned) [23.30 Diastereomer A, N-(4-(2-benzyl-1-(1H-pyrazol-1-yl)cyclopropylamino)-1-(3,5-difluorophenyl)-3-hydroxybutan-2-yl)acetamide]	–	8.48
CC(=O)NC(Cc1cc(F)cc(F)c1)C(O)CNC1(c2csc(CC(C)(C)C)n2)CC1 (stereo not drawn) [Example 23.19, N-(4-(1-(2-neopentylthiazol-4-yl)cyclopropylanimo)1-(3,5-difluorophenyl)-3-hydroxybutan-2-yl)acetamide]	26.7	–
CCOCC(=O)NC(Cc1cc(F)cc(F)c1)C(O)CNC1(c2cccc(-n3cccn3)c2)CC1 (stereo not drawn) [Example 23.41, N-(4-(1-(3-(1H-pyrazol-1-yl)phenyl)cyclopropylamino)-1-(3,5-difluorophenyl)-3-hydroxybutan-2-yl)-2-ethoxyacetamide]	–	9.86
CC(=O)NC(Cc1cc(F)cc(F)c1)C(O)CNC1(c2cccc(N3CCSCC3)c2)CC1 (stereo not drawn) [Example 23.48, N-(1-(3,5-difluorophenyl)-3-hydroxy-4-(1-(3-thiomorpholinophenyl)cyclopropylamino)butan-2-yl)acetamide]	–	10.9
CC(=O)NC(Cc1cc(F)cc(F)c1)C(O)CNC1(c2c(F)ccc(-n3cccn3)c2F)CC1 (stereo not drawn) [Example 23.35, N-(4-(1-(2,6-difluoro-3-(1H-pyrazol-1-yl)phenyl)cyclopropylamino)-1-(3,5-difluorophenyl)-3-hydroxybutan-2-yl)acetamide]	–	19.4
CC(=O)NC(Cc1cc(F)cc(F)c1)C(O)CNC1(c2csc(C(C)(C)C)c2)CC1 (stereo not drawn) [Example 23.21, N-(4-(1-(5-tert-butylthiophen-3-yl)cyclopropylamino)-1-(3,5-difluorophenyl)-3-hydroxybutan-2-yl)acetamide]	–	10
C=C(c1cccc(C2(NCC(O)C(Cc3cc(F)cc(F)c3)NC(C)=O)CC2)c1)C(F)(F)F (stereo not drawn) [Example 23.26, N-(1-(3,5-difluorophenyl)-3-hydroxy-4-(1-(3-(3,3,3-trifluoroprop-1-en-2-yl)phenyl)cyclopropylamino)butan-2-yl)acetamide]	–	10.3
COCC(=O)NC(Cc1cc(F)cc(F)c1)C(O)CNC1(c2cccc(-n3cccn3)c2)CC1 (stereo not drawn) [Example 23.40, N-(4-(1-(3-(1H-pyrazol-1-yl)phenyl)cyclopropylamino)-1-(3,5-difluorophenyl)-3-hydroxybutan-2-yl)-2-methoxyacetamide]	–	12.9
CC(=O)NC(Cc1cc(F)cc(F)c1)C(O)CNC1(c2cccc(C3CCOC3)c2)CC1 (stereo not drawn) [Example 23.24, N-(1-(3,5-difluorophenyl)-3-hydroxy-4-(1-(3-(tetrahydrofuran-3-yl)phenyl)cyclopropylamino)butan-2-yl)acetamide]	–	13.2
CC(=O)NC(Cc1cc(F)cc(F)c1)C(O)CNC1(c2nc(CC(C)(C)C)cs2)CC1 (stereo not drawn) [Example 23.36, N-(1-(3,5-difluorophenyl)-3-hydroxy-4-(1-(4-neopentylthiazol-2-yl)cyclopropylamino)butan-2-yl)acetamide]	11.3	–
CC(=O)NC(Cc1cc(F)cc(F)c1)C(O)CNC1(c2ncc(C(C)(C)C)o2)CC1 (stereo not drawn) [Example 23.56, N-(4-(1-(5-tert-butyloxazol-2-yl)cyclopropylamino)-1-(3,5-difluorophenyl)-3-hydroxybutan-2-yl)acetamide]	–	20.4
CC(=O)NC(Cc1cc(F)cc(F)c1)C(O)CNC1(c2cc(-n3cccn3)cs2)CC1 (stereo not drawn) [Example 23.15, N-(4-(1-(4-(1H-pyrazol-1-yl)thiophen-2-yl)cyclopropylamino)-1-(3,5-difluorophenyl)-3-hydroxybutan-2-yl)acetamide]	–	12.1
CC(=O)NC(Cc1cc(F)cc(F)c1)C(O)CNC1(c2cccc(-n3cccn3)c2)CC1C (stereo not drawn) [Example 23.23, N-(4-(1-(3-(1H-pyrazol-1-yl)phenyl)-2-methylcyclopropylamino)-1-(3,5-difluorophenyl)-3-hydroxybutan-2-yl)acetamide]	–	11.1

Next, values leading:

Papp A→B at 2 h, 5 μM [×10⁻⁶ cm/s]	Papp A→B at 2 h, 5 μM (MDCK) [×10⁻⁶ cm/s]	Structure (SMILES)
–	12.7	CC(=O)NC(Cc1cc(F)cc(F)c1)C(O)CNC1(c2cccc(C3COCO3)c2)CC1 (stereo not drawn) [Example 23.53, N-(4-(1-(3-(1,3-dioxolan-4-yl)phenyl)cyclopropylamino)-1-(3,5-difluorophenyl)-3-hydroxybutan-2-yl)acetamide]
–	12.1	CC(=O)NC(Cc1cc(F)cc(F)c1)C(O)CNC1(c2cn(-c3ccsc3)nn2)CC1 (stereo not drawn) [Example 23.20, N-(1-(3,5-difluorophenyl)-3-hydroxy-4-(1-(1-(thiophen-3-yl)-1H-1,2,3-triazol-4-yl)cyclopropylamino)butan-2-yl)acetamide]
–	12.1	CC(=O)NC(Cc1cc(F)cc(F)c1)C(O)CNC1(c2cccc(N3CCOCC3)c2)CC1 (stereo not drawn) [Example 23.32, N-(1-(3,5-difluorophenyl)-3-hydroxy-4-(1-(3-morpholinophenyl)cyclopropylamino)butan-2-yl)acetamide]
–	12.1	CC(=O)NC(Cc1cc(F)cc(F)c1)C(O)CNC1(c2cccc(C3CCOCOC3)c2)CC1 (stereo not drawn) [Example 23.34, N-(4-(1-(3-(1,3-dioxepan-5-yl)phenyl)cyclopropylamino)-1-(3,5-difluorophenyl)-3-hydroxybutan-2-yl)acetamide]
–	20.4	CC(=O)NC(Cc1cc(F)cc(F)c1)C(O)CNC1(n2cccn2)C2CCCC21 (stereo not drawn) [Example 23.14, N-(4-(6-(1H-pyrazol-1-yl)bicyclo[3.1.0]hexan-6-ylamino)-1-(3,5-difluorophenyl)-3-hydroxybutan-2-yl)acetamide]
–	7.11	CC(=O)NC(Cc1cc(F)cc(F)c1)C(O)CNC1(c2cnn(C(C)(C)C)c2)CC1 (stereo not drawn) [Example 23.37, N-(4-(1-(1-tert-butyl-1H-pyrazol-4-yl)cyclopropylamino)-1-(3,5-difluorophenyl)-3-hydroxybutan-2-yl)acetamide]
–	22.1	O=C(Cc1ccccc1)NC(Cc1cc(F)cc(F)c1)C(O)CNC1(c2cccc(-n3cccn3)c2)CC1 (stereo not drawn) [Example 23.38, N-(4-(1-(3-(1H-pyrazol-1-yl)phenyl)cyclopropylamino)-1-(3,5-difluorophenyl)-3-hydroxybutan-2-yl)-2-phenylacetamide]
–	17	COC(=O)NC(Cc1cc(F)cc(F)c1)C(O)CNC1(c2cccc(-n3cccn3)c2)CC1 (stereo not drawn) [Example 23.45, methyl 4-(1-(3-(1H-pyrazol-1-yl)phenyl)cyclopropylamino)-1-(3,5-difluorophenyl)-3-hydroxybutan-2-ylcarbamate]
–	12.7	CC(=O)NC(Cc1cc(F)cc(F)c1)C(O)CNC1(c2cccc(C(F)C(C)(C)F)c2)CC1 (stereo not drawn) [Example 23.51, N-(4-(1-(3-(1,2-difluoro-2-methylpropyl)phenyl)cyclopropylamino)-1-(3,5-difluorophenyl)-3-hydroxybutan-2-yl)acetamide]
–	14.7	COCC(C)(C)c1cccc(C2(NCC(O)C(Cc3cc(F)cc(F)c3)NC(C)=O)CC2)c1 (stereo not drawn) [Example 23.52, N-(1-(3,5-difluorophenyl)-3-hydroxy-4-(1-(3-(1-methoxy-2-methylpropan-2-yl)phenyl)cyclopropylamino)butan-2-yl)acetamide]
–	12.8	CC(=O)NC(Cc1cc(F)cc(F)c1)C(O)CNC1(c2cccc(C(C)(C)C(F)F)c2)CC1 (stereo not drawn) [Example 23.50, N-(4-(1-(3-(1,1-difluoro-2-methylpropan-2-yl)phenyl)cyclopropylamino)-1-(3,5-difluorophenyl)-3-hydroxybutan-2-yl)acetamide]
–	8.62	CC(=O)NC(Cc1cc(F)cc(F)c1)C(O)CNC1(c2cncc(-n3cccn3)c2)CC1 (stereo not drawn) [Example 23.29, N-(4-(1-(5-(1H-pyrazol-1-yl)pyridin-3-yl)cyclopropylamino)-1-(3,5-difluorophenyl)-3-hydroxybutan-2-yl)acetamide]
